Paper PMC4224962 (Nature, 2014)

Key:
Type in all cases: cell-based, Mus musculus
[1] = test system: primary white adipocytes; experiment: Thermogenic gene expression; details: for Ucp1 expression: primary adipocytes treated with the indicated proteins 1 μg/ml for 24 hr, n = 3 (Fig. 2e)
[2] = test system: primary brown adipocytes; experiment: Thermogenic gene expression; details: peptides 100 ng/ml for 2 hr, RT-qPCR, n = 3 (Extended Data Fig. 3d)
[3] = test system: UCP1 protein; experiment: UCP1 protein levels by western blotting in primary white and brown adipocytes; details: NE 100 nM, PTHrP or PTH 100 ng/ml each, 24 hr
[4] = test system: primary adipocytes; experiment: Cellular oxygen consumption rate; details: primary white adipocytes, NE 100 nM, PTHrP or PTH 100 ng/ml, 24 hr, n = 4

Molecule	UCP1 protein levels [3]	O2 consumption, including basal, uncoupled and maximal respiration [4]	Ucp1 expression ([1]; RT-qPCR)	other results
PTH: Synthetic parathyroid hormone 1-34 peptide, purchased from Bachem (SVSEIQLMHNLGKHLNSMERVEWLRKKLQDVHNF; Parathyroid hormone; UniProt P01270 32-65, looked up, fragment)	increased UCP1 protein comparably	significantly raised O2 consumption		thermogenic gene expression ([1]; primary white adipocytes, peptides 100 ng/ml for 2 hr, RT-qPCR, n = 3 (Fig. 3b)): stimulated thermogenic gene expression; thermogenic gene expression [2]: stimulated thermogenic gene expression
epiregulin [EREG]			induced Ucp1 expression	
C=CC(=O)Nc1ccc2ncnc(Nc3ccc(OCc4cccc(F)c4)c(Cl)c3)c2c1 [AST-1306]				browning activity present in LLC cell-conditioned medium ([1]; AST-1306 1 μM and LLC cell-conditioned medium for 24 hr, primary adipocytes, n = 3 (Fig. 3a)): largely unaffected; Ucp1 mRNA induction by BTC, EREG or HBEGF ([1]; AST-1306 1 μM with BTC, EREG or HBEGF 100 ng/ml for 24 hr, primary adipocytes, n = 3 (Extended Data Fig. 3c)): completely blocked Ucp1 mRNA induction
NC[C@H](O)c1ccc(O)c(O)c1 [NE, norepinephrine]	increased UCP1 protein comparably	significantly raised O2 consumption		
heparin binding-EGF (protein, UniProt Q99075 63-148, looked up) Heparin-binding EGF-like …: DLQEADLDLLRVTLSSKPQALATPNKEEHGKRKKKGKGLGKKRDPCLRKYKDFCIHGECKYVKELRAPSCICHPGYHGERCHGLSL			induced Ucp1 expression	
betacellulin (protein, UniProt P35070 32-111, looked up) Betacellulin: DGNSTRSPETNGLLCGDPEENCAATTTQSKRKGHFSRCPKQYKHYCIKGRCRFVVAEQTPSCVCDEGYIGARCERVDLFY			induced Ucp1 expression	
